ChEMBL document CHEMBL1201862, “PubChem BioAssay data set” (2004)
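Exposure lasted 48 hours, with cells grown in 96-well plates and compounds tested at five concentrations. GI50: concentration for 50% inhibition of growth.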 Calls of active or inactive are those of the source. Cut-off read from the data, not from the text of the source: active = GI50 up to about 1.1 µM and inactive = higher.

Experiments:
Test in all cases: inhibition of tumour cell growth, NCI panel, 48 h
[1] = system: HL-60
[2] = system: MOLT-4
[3] = system: ACHN
[4] = system: HT-29
[5] = system: MCF7
[6] = system: MDA-MB-435
[7] = system: CCRF-CEM
[8] = system: Malme-3M
[9] = system: A498
[10] = system: SNB-75
[11] = system: RPMI-8226
[12] = system: MDA-MB-231
[13] = system: NCI-H460
[14] = system: 786-0
[15] = system: UO-31
[16] = system: SK-OV-3
[17] = system: KM12
[18] = system: CAKI-1
[19] = system: NCI-H522
[20] = system: RXF 393
[21] = system: TK-10
[22] = system: DU-145
[23] = system: HCT-116
[24] = system: IGROV-1
[25] = system: OVCAR-3
[26] = system: SNB-19
[27] = system: EKVX
[28] = system: SW-620
[29] = system: COLO 205
[30] = system: U-251
[31] = system: OVCAR-4
[32] = system: A549
[33] = system: SK-MEL-5
[34] = system: SF-539
[35] = system: NCI-H23
[36] = system: SF-295
[37] = system: SR
[38] = system: HOP-92
[39] = system: MDA-N
[40] = system: HOP-62
[41] = system: PC-3
[42] = system: K562
[43] = system: HCC 2998
[44] = system: OVCAR-8
[45] = system: BT-549
[46] = system: OVCAR-5
[47] = system: SK-MEL-2
[48] = system: M14
[49] = system: UACC-62
[50] = system: NCI-H226
[51] = system: UACC-257
[52] = system: HCT-15
[53] = system: SF-268
[54] = system: NCI/ADR-RES
[55] = system: SN12C
[56] = system: Hs-578T
[57] = system: SK-MEL-28
[58] = system: LOX IMVI
[59] = system: T47D

For C[C@]12C[C@@H](c3ccccc3)Nc3ccccc3N1C(c1ccccc1)=NO2, the GI50 [1] was 46.2 µM (inactive), the GI50 [2] was 18 µM (inactive) and the GI50 [3] was 33.9 µM (inactive). For the same compound, the GI50 [4] was 30.6 µM (inactive), the GI50 [5] was 31 µM (inactive) and the GI50 [6] was 24.5 µM (inactive). The GI50 [7] was 35.9 µM (inactive), the GI50 [8] was 42.9 µM (inactive) and the GI50 [9] was 43.3 µM (inactive). For the same compound, the GI50 [10] was 16.6 µM (inactive), the GI50 [11] was 20.3 µM (inactive) and the GI50 [12] was 45.5 µM (inactive). The GI50 [13] was 52.1 µM (inactive), the GI50 [14] was 56.6 µM (inactive) and the GI50 [15] was 29.6 µM (inactive). For the same compound, the GI50 [16] was > 100 µM (inactive), the GI50 [17] was 33.6 µM (inactive) and the GI50 [18] was 37.1 µM (inactive). For the same compound, the GI50 [19] was 35.9 µM (inactive), the GI50 [20] was 51.6 µM (inactive) and the GI50 [21] was 34.4 µM (inactive). The GI50 [22] was 92.3 µM (inactive), the GI50 [23] was 37.9 µM (inactive) and the GI50 [24] was 38.1 µM (inactive). The GI50 [25] was 46.8 µM (inactive), the GI50 [26] was 89.7 µM (inactive) and the GI50 [27] was 24.3 µM (inactive). For the same compound, the GI50 [28] was 61.1 µM (inactive), the GI50 [29] was 19 µM (inactive) and the GI50 [30] was 44.2 µM (inactive). The GI50 [31] was 24.9 µM (inactive), the GI50 [32] was 54.3 µM (inactive) and the GI50 [33] was 16.1 µM (inactive). The GI50 [34] was 33.4 µM (inactive), the GI50 [35] was 30.7 µM (inactive) and the GI50 [36] was 16 µM (inactive). For the same compound, the GI50 [37] was 1.8 µM (inactive), the GI50 [38] was 18.5 µM (inactive) and the GI50 [39] was 26.2 µM (inactive). The GI50 [40] was 77.1 µM (inactive), the GI50 [41] was 43 µM (inactive) and the GI50 [42] was 35.4 µM (inactive). For the same compound, the GI50 [43] was 81.3 µM (inactive), the GI50 [44] was 36.1 µM (inactive) and the GI50 [45] was 40.9 µM (inactive). The GI50 [46] was 33.2 µM (inactive), the GI50 [47] was 25.6 µM (inactive) and the GI50 [48] was 32.5 µM (inactive). The GI50 [49] was 33.4 µM (inactive), the GI50 [50] was 32.4 µM (inactive) and the GI50 [51] was 33.8 µM (inactive). For the same compound, the GI50 [52] was 35.4 µM, the GI50 [53] was 88.5 µM (inactive) and the GI50 [54] was 45.1 µM (inactive). The GI50 [55] was 49.3 µM (inactive) and the GI50 [56] was 77.8 µM (inactive).
For COC(=O)C1CCCN1C(=O)OC(C)(C)C (stereo not given), the GI50 [2] was 23.3 µM (inactive), the GI50 [3] was > 100 µM (inactive) and the GI50 [4] was > 100 µM (inactive). For the same compound, the GI50 [5] was > 100 µM (inactive), the GI50 [6] was > 100 µM (inactive) and the GI50 [7] was > 100 µM (inactive). The GI50 [10] was > 100 µM (inactive), the GI50 [12] was > 100 µM (inactive) and the GI50 [13] was > 100 µM (inactive). For the same compound, the GI50 [14] was > 100 µM (inactive), the GI50 [15] was > 100 µM (inactive) and the GI50 [16] was > 100 µM (inactive). For the same compound, the GI50 [17] was > 100 µM (inactive), the GI50 [18] was > 100 µM (inactive) and the GI50 [20] was > 100 µM (inactive). The GI50 [21] was > 100 µM (inactive), the GI50 [22] was > 100 µM (inactive) and the GI50 [23] was > 100 µM (inactive). For the same compound, the GI50 [24] was > 100 µM (inactive), the GI50 [25] was > 100 µM (inactive) and the GI50 [57] was > 100 µM (inactive). The GI50 [26] was > 100 µM (inactive), the GI50 [27] was > 100 µM (inactive) and the GI50 [28] was > 100 µM (inactive). The GI50 [29] was > 100 µM (inactive), the GI50 [30] was > 100 µM (inactive) and the GI50 [31] was > 100 µM (inactive). For the same compound, the GI50 [32] was > 100 µM (inactive), the GI50 [33] was > 100 µM (inactive) and the GI50 [35] was > 100 µM (inactive). For the same compound, the GI50 [36] was > 100 µM (inactive), the GI50 [37] was > 100 µM (inactive) and the GI50 [39] was > 100 µM (inactive). The GI50 [40] was > 100 µM (inactive), the GI50 [41] was > 100 µM (inactive) and the GI50 [42] was > 100 µM (inactive). The GI50 [43] was > 100 µM (inactive), the GI50 [45] was > 100 µM (inactive) and the GI50 [46] was > 100 µM (inactive). For the same compound, the GI50 [47] was > 100 µM (inactive), the GI50 [49] was > 100 µM (inactive) and the GI50 [50] was > 100 µM (inactive). The GI50 [51] was > 100 µM (inactive), the GI50 [52] was > 100 µM and the GI50 [53] was 65.3 µM (inactive). For the same compound, the GI50 [54] was > 100 µM (inactive), the GI50 [58] was > 100 µM (inactive) and the GI50 [59] was > 100 µM (inactive). The GI50 [55] was > 100 µM (inactive).
